Experimental data published in patent US20260159520A1, “HETEROBIFUNCTIONAL COMPOUNDS AND METHODS OF TREATING DISEASE” (Halda Therapeutics OpCo, Inc., priority 2022, published 2026).

Assays:
Type in all cases: cell-based
[1] = system: T-Rex 293 cell line SC3 cells having increased expression of androgen receptor protein; assay: Cellular growth inhibition, T-Rex 293 SC3 cells with doxycycline (increased androgen receptor expression); conditions: with 10 ng/mL doxycycline (increased androgen receptor), 72 hours, CellTiter-Glo 2.0
Summary of the method: (§1)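 Doxycycline (10 ng/mL) was either included or omitted to toggle wild-type androgen receptor expression in SC3 cells, a T-Rex 293 clone, grown in stripped-serum, phenol red-free medium. After 72 hours with compound, viable cells were quantified by CellTiter-Glo 2.0.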

[2] = system: T-Rex 293 cell line SC3 cells lacking increased expression of androgen receptor protein; assay: Cellular growth inhibition, T-Rex 293 SC3 cells without doxycycline; conditions: not exposed to doxycycline, 72 hours, CellTiter-Glo 2.0
Summary of the method: as §1

VCaP cells = assay: Cellular growth inhibition assay for VCaP cells; conditions: Homo sapiens, 72 hours, CellTiter-Glo 2.0
T47D cells = assay: Cellular growth inhibition assay for T47D cells; conditions: Homo sapiens, 72 hours, CellTiter-Glo 2.0
Summary of the method: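 Growth inhibition as GI50, fitted with four parameters to CellTiter-Glo luminescence after 72 h of compound exposure (0.5% DMSO). Cells were T47D, grown in insulin-supplemented (0.2 units/mL) DMEM with 10% FBS and treated one day post-seeding.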

| SMILES | GI50 (VCaP cells) | GI50 (T47D cells) | GI50 [1] | GI50 [2] |
| --- | --- | --- | --- | --- |
| Cc1ncc(-c2nc(Nc3ccc(C(=O)N4CC[C@H](N(C)CCOC5CCN(c6ncc(C(=O)N[C@H]7C(C)(C)[C@H](Oc8ccc(C#N)c(Cl)c8)C7(C)C)cn6)CC5)C4)cc3)ncc2F)n1C(C)C [Compound I-95, N-[3-(3-chloro-4-cyano-phenoxy)-2,2,4,4-tetramethyl-cyclobutyl]-2-[4-[2-[[(3S)-1-[4-[[5-fluoro-4-(3-isopropyl-2-methyl-imidazol-4-yl)pyrimidin-2-yl]amino]benzoyl]pyrrolidin-3-yl]-methyl-amino]ethoxy]-1-piperidyl]pyrimidine-5-carboxamide] | 1000 to 3500 nM | 500 to 1500 nM | 1000 to 3500 nM | 1000 to 3500 nM |
| CCc1cnn2c(NCc3ccc(OC4CCN(CC5CCN(c6ncc(C(=O)N[C@H]7C(C)(C)[C@H](Oc8ccc(C#N)c(Cl)c8)C7(C)C)cn6)CC5)CC4)nc3)cc(N3CCCC[C@H]3CCO)nc12 [Compound I-46] | 100 to 1000 nM | < 500 nM | < 100 nM | 100 to 1000 nM |
| Cc1ncc(-c2nc(Nc3ccc(C(=O)N4CC[C@H](N(C)CCOCCOCCOCCOCCOC5CCN(c6ncc(C(=O)N[C@H]7C(C)(C)[C@H](Oc8ccc(C#N)c(Cl)c8)C7(C)C)cn6)CC5)C4)cc3)ncc2F)n1C(C)C [Compound I-97] | 1000 to 3500 nM | 1500 to 3000 nM | 1000 to 3500 nM | 1000 to 3500 nM |
| Cc1ncc(-c2nc(Nc3ccc(C(=O)N4CC[C@H](N(C)CCOCCOCCOC5CCN(c6ncc(C(=O)N[C@H]7C(C)(C)[C@H](Oc8ccc(C#N)c(Cl)c8)C7(C)C)cn6)CC5)C4)cc3)ncc2F)n1C(C)C [Compound I-96] | 1000 to 3500 nM | 1500 to 3000 nM | 100 to 1000 nM | 1000 to 3500 nM |
| CCc1cnn2c(NCc3ccc(OCCN4CCN(CC5CCN(c6ncc(C(=O)N[C@H]7C(C)(C)[C@H](Oc8ccc(C#N)c(Cl)c8)C7(C)C)cn6)CC5)CC4)nc3)cc(-c3ccccc3)nc12 [Compound I-47, N-((1r,3r)-3-(3-chloro-4-cyanophenoxy)-2,2,4,4-tetramethylcyclobutyl)-2-(4-((4-(2-((5-(((3-ethyl-5-phenylpyrazolo[1,5-a]pyrimidin-7-yl)amino)methyl)pyridin-2-yl)oxy)ethyl)piperazin-1-yl)methyl)piperidin-1-yl)pyrimidine-5-carboxamide] | > 3500 nM | > 3000 nM | 100 to 1000 nM | > 3500 nM |
| CCc1cnn2c(NCc3ccc(OCCOC4CCN(c5ncc(C(=O)N[C@H]6C(C)(C)[C@H](Oc7ccc(C#N)c(Cl)c7)C6(C)C)cn5)CC4)nc3)cc(N3CCCC[C@H]3CCO)nc12 [Compound I-7, N-((1r,3r)-3-(3-chloro-4-cyanophenoxy)-2,2,4,4-tetramethylcyclobutyl)-2-(4-(2-((5-(((3-ethyl-5-((S)-2-(2-hydroxyethyl)piperidin-1-yl)pyrazolo[1,5-a]pyrimidin-7-yl)amino)methyl)pyridin-2-yl)oxy)ethoxy)piperidin-1-yl)pyrimidine-5-carboxamide] | 1000 to 3500 nM | > 3000 nM | > 3500 nM | > 3500 nM |
| CCc1cnn2c(NCc3ccc(N4CCC(CN5CCC6CN(c7ncc(C(=O)N[C@H]8C(C)(C)[C@H](Oc9ccc(C#N)c(Cl)c9)C8(C)C)cn7)CCC6C5)CC4)nc3)cc(N3CCCC[C@H]3CCO)nc12 (stereo partly shown) [Compound I-71] | 1000 to 3500 nM | 1500 to 3000 nM | < 100 nM | > 3500 nM |
| CCc1cnn2c(NCc3ccc(N4CC(OCCN5CC6CN(c7ncc(C(=O)N[C@H]8C(C)(C)[C@H](Oc9ccc(C#N)c(Cl)c9)C8(C)C)cn7)CC6C5)C4)nc3)cc(N3CCCC[C@H]3CCO)nc12 (stereo partly shown) [Compound I-72] | 100 to 1000 nM | 1500 to 3000 nM | 100 to 1000 nM | 100 to 1000 nM |
| CC1(C)[C@H](NC(=O)c2cnc(N3CCC(CN4CCN(CCN5C/C=C/CCOc6cccc(c6)-c6ccnc(n6)Nc6cccc(c6)C5)CC4)CC3)nc2)C(C)(C)[C@H]1Oc1ccc(C#N)c(Cl)c1 [Compound I-94] | > 3500 nM | > 3000 nM | 100 to 1000 nM | 1000 to 3500 nM |
| CCc1cnn2c(NCc3ccc(COCCN4CCN(CC5CCN(c6ncc(C(=O)N[C@H]7C(C)(C)[C@H](Oc8ccc(C#N)c(Cl)c8)C7(C)C)cn6)CC5)CC4)nc3)cc(N3CCCC[C@H]3CCO)nc12 [Compound I-42] | < 100 nM | < 500 nM | < 100 nM | 100 to 1000 nM |

Further lines, with some results ahead:

| GI50 (VCaP cells) | GI50 (T47D cells) | SMILES | GI50 [1] | GI50 [2] |
| --- | --- | --- | --- | --- |
| < 100 nM | < 500 nM | CCc1cnn2c(NCc3ccc(N4CCC(N5CCN(C6CN(c7ncc(C(=O)N[C@H]8C(C)(C)[C@H](Oc9ccc(C#N)c(Cl)c9)C8(C)C)cn7)C6)CC5)CC4)nc3)cc(N3CCCC[C@H]3CCO)nc12 [Compound I-86] | < 100 nM | < 100 nM |
| < 100 nM | < 500 nM | CCc1cnn2c(NCc3ccc(OCCCN4CCC(C5CN(c6ncc(C(=O)N[C@H]7C(C)(C)[C@H](Oc8ccc(C#N)c(Cl)c8)C7(C)C)cn6)C5)CC4)nc3)cc(N3CCCC[C@H]3CCO)nc12 [Compound I-61] | < 100 nM | 100 to 1000 nM |
| < 100 nM | < 500 nM | CCc1cnn2c(NCc3ccc(OCCCN4CCN(CC5CCN(c6ccc(C(=O)N[C@H]7C(C)(C)[C@H](Oc8ccc(C#N)c(Cl)c8)C7(C)C)cc6)CC5)CC4)nc3)cc(N3CCCC[C@@H]3CCO)nc12 [II-1, N-((1r,3r)-3-(3-chloro-4-cyanophenoxy)-2,2,4,4-tetramethylcyclobutyl)-4-(4-((4-(3-((5-(((3-ethyl-5-((R)-2-(2-hydroxyethyl)piperidin-1-yl)pyrazolo[1,5-a]pyrimidin-7-yl)amino)methyl)pyridin-2-yl)oxy)propyl)piperazin-1-yl)methyl)piperidin-1-yl)benzamide] | < 100 nM | 100 to 1000 nM |
| < 100 nM | < 500 nM | CC(C)n1cc(-c2ccnc3[nH]c(C4CCN(CCN5CCN(CC6CCN(c7ncc(C(=O)NC8C(C)(C)C(Oc9ccc(C#N)c(Cl)c9)C8(C)C)cn7)CC6)CC5)CC4)cc23)ccc1=O (stereo not shown) [Compound I-74, N-[3-(3-chloro-4-cyano-phenoxy)-2,2,4,4-tetramethyl-cyclobutyl]-2-[4-[[4-[2-[4-[4-(1-isopropyl-6-oxo-3-pyridyl)-1H-pyrrolo [2,3-b]pyridin-2-yl]-1-piperidyl]ethyl]piperazin-1-yl]methyl]-1-piperidyl]pyrimidine-5-carboxamide] | < 100 nM | 100 to 1000 nM |
| < 100 nM | < 500 nM | CCc1cnn2c(NCc3ccc(OCCCN4CCN(CC5CCN(c6ccc(C(=O)N[C@H]7C(C)(C)[C@H](Oc8ccc(C#N)c(Cl)c8)C7(C)C)cn6)CC5)CC4)nc3)cc(N3CCCC[C@@H]3CCO)nc12 [Compound I-55, N-((1r,3r)-3-(3-chloro-4-cyanophenoxy)-2,2,4,4-tetramethylcyclobutyl)-6-(4-((4-(3-((5-(((3-ethyl-5-((R)-2-(2-hydroxyethyl)piperidin-1-yl)pyrazolo[1,5-a]pyrimidin-7-yl)amino)methyl)pyridin-2-yl)oxy)propyl)piperazin-1-yl)methyl)piperidin-1-yl)nicotinamide] | < 100 nM | 100 to 1000 nM |
| < 100 nM | < 500 nM | CCc1cnn2c(NCc3ccc(OCC4CCN(CC5CCN(c6ncc(C(=O)N[C@H]7C(C)(C)[C@H](Oc8ccc(C#N)c(Cl)c8)C7(C)C)cn6)CC5)CC4)nc3)cc(N3CCCC[C@H]3CCO)nc12 [Compound I-51] | < 100 nM | 100 to 1000 nM |
| < 100 nM | < 500 nM | CCc1cnn2c(NCc3ccc(OCCCN4CCN(C5CN(c6ncc(C(=O)N[C@H]7C(C)(C)[C@H](Oc8ccc(C#N)c(Cl)c8)C7(C)C)cn6)C5)CC4)nc3)cc(N3CCCC[C@H]3CCO)nc12 [Compound I-60] | < 100 nM | < 100 nM |
| < 100 nM | < 500 nM | CCc1cnn2c(NCc3ccc(OCCCCN4CCN(CC5CCN(c6ncc(C(=O)N[C@H]7C(C)(C)[C@H](Oc8ccc(C#N)c(Cl)c8)C7(C)C)cn6)CC5)CC4)nc3)cc(N3CCCC[C@H]3CCO)nc12 [Compound I-43] | < 100 nM | 100 to 1000 nM |
| < 100 nM | < 500 nM | CCc1cnn2c(NCc3ccc(OCCOCCOCCOC4CCN(c5ncc(C(=O)N[C@H]6C(C)(C)[C@H](Oc7ccc(C#N)c(Cl)c7)C6(C)C)cn5)CC4)nc3)cc(N3CCCC[C@H]3CCO)nc12 [Compound I-8] | < 100 nM | 100 to 1000 nM |
